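Cultured in 96-well plates, cells were exposed to test compound for 48 hours across five concentrations. GI50 marks 50% less growth.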 Activity calls are given as the source filed them. No stated cut-off is given here; in the data, active = GI50 up to about 1.1 µM and inactive = higher. Bounds are passed on as bounds.

Results on 12 molecules are retold here after ChEMBL document CHEMBL1201862, “PubChem BioAssay data set” (2004).

Common to all, as to experiment: DTP human tumour cell line panel, 48 h
The test system of experiment [1] is K562.
Experiment [2] has as its system LOX IMVI.
The subject of experiment [3] is SF-539.
In experiment [4] the test system is 786-0.
Experiment [5] deals with U-251.
In experiment [6] the test system is HCT-116.
For experiment [7], the system named is M14.
In experiment [8] the test system is MOLT-4.
The test system of experiment [9] is CCRF-CEM.
For experiment [10], the system named is HCC 2998.
In experiment [11] the test system is UO-31.
The subject of experiment [12] is A498.
For experiment [13], the system named is OVCAR-3.
Experiment [14] relates to ACHN.
Experiment [15] relates to KM12.
Experiment [16] relates to SN12C.
Experiment [17] relates to RXF 393.
Experiment [18] relates to HOP-92.

For orientation: GI50 means the concentration at which growth is held to half of that of the control. Turning to `CC1=C(C(=O)Nc2ccc(C)cc2)C(c2cccc([N+](=O)[O-])c2)C(C(=O)Nc2ccc(C)cc2)=C(C)N1`, the GI50 in [1] is 16.9 µM (inactive); in [2] it was 16.2 µM (inactive); in experiment [3], 19 µM (inactive); in experiment [4] it was 26.2 µM (inactive); in experiment [5], 20.7 µM (inactive); in experiment [6], 35.6 µM (inactive). For the same molecule, the GI50 in [7] was 16.9 µM (inactive); in experiment [8], 5.55 µM (inactive); in experiment [9], 7.89 µM (inactive); in experiment [10], 30.6 µM (inactive); in experiment [11], 22 µM (inactive); in experiment [12], 16.4 µM (inactive). Further, the GI50 in [13] is 20 µM (inactive); in experiment [14], 18.8 µM (inactive); in experiment [15], 15.6 µM (inactive); in [16] it was 20.9 µM (inactive); in experiment [17] it was 22.8 µM (inactive).

For the molecule `CC1=C(C(=O)Nc2ccc([N+](=O)[O-])cc2)C(c2ccccc2O)C(C(=O)Nc2ccc([N+](=O)[O-])cc2)=C(C)N1`, the GI50 in experiment [1] was 17.9 µM (inactive); in [18], 11.7 µM (inactive); in experiment [2], 16.1 µM (inactive); in experiment [3] it was 22.1 µM (inactive); in experiment [4], 21.2 µM (inactive); in experiment [5], 21.4 µM (inactive). Besides, the GI50 in experiment [7] was 19.3 µM (inactive); in experiment [8], 15.2 µM (inactive); in experiment [9], 18 µM (inactive); in [10] it was 13.5 µM (inactive); in [11] it was 15.2 µM (inactive); in experiment [12], 20.1 µM (inactive). Besides, the GI50 in [13] was 20.5 µM (inactive); in experiment [14] it was 13.8 µM (inactive); in [15] it was 20.2 µM (inactive); in experiment [16] it was 19.6 µM (inactive); in experiment [17] it was 10.1 µM (inactive).

As to `Cc1cc(N(CCC#N)CCC#N)ccc1/N=N/c1ccccc1[N+](=O)[O-]`, the GI50 in experiment [1], in [2], in [3], in experiment [4], in [5] and in experiment [7] was > 100 µM (inactive) each time. Also, the GI50 in [8], in experiment [9], in experiment [10], in [11], in [12] and in experiment [13] was > 100 µM (inactive) each time. Also, the GI50 in [14], in experiment [15], in experiment [16] and in experiment [17] was > 100 µM (inactive) each time.

As to `COc1c(OC(C)=O)cc2c(OC(C)=O)c1CC(C)CC(OC)C(O)C(C)/C=C(\C)C(OC(N)=O)C(OC)/C=C\C=C(/C)C(=O)N2` (configuration not stated), the GI50 in experiment [1] is > 26.3 µM (inactive); in [18], 96.8 µM (inactive); in [2], > 100 µM (inactive); in experiment [3] it was > 100 µM (inactive); in [4], > 81.3 µM (inactive); in experiment [5], > 100 µM (inactive). The GI50 is > 55.5 µM (inactive) in experiment [6]; > 100 µM (inactive) in experiment [7]; > 27 µM (inactive) in experiment [8]; > 53.5 µM (inactive) in experiment [9]; 36.5 µM (inactive) in experiment [10]; > 83.6 µM (inactive) in [11]. Also, the GI50 in experiment [12] was > 100 µM (inactive); in experiment [13] it was 98.4 µM (inactive); in [14], > 100 µM (inactive); in experiment [15] it was > 100 µM (inactive); in experiment [16], 69.5 µM (inactive); in experiment [17], 98.2 µM (inactive).

Turning to `O=C(O)/C(Cl)=C(\Cl)C(=O)Nc1ccccc1`, the GI50 in [1], in [18], in experiment [2], in experiment [3], in [4] and in experiment [5] was > 100 µM (inactive) in each case. Also, the GI50 in experiment [6] was > 100 µM (inactive); in experiment [7], > 100 µM (inactive); in experiment [8], > 100 µM (inactive); in [9], 69.3 µM (inactive); in [10], > 100 µM (inactive); in [11] it was > 100 µM (inactive). In addition, the GI50 in experiment [12], in experiment [13], in experiment [14], in experiment [15], in [16] and in experiment [17] was > 100 µM (inactive) in each case.

For `Cc1cc(C)c(C(=O)O)c(N)c1O`, the GI50 in [1], in experiment [2], in experiment [4], in experiment [5], in experiment [6] and in experiment [7] was > 100 µM (inactive) each time. Further, the GI50 in experiment [8], in experiment [9], in experiment [10], in [11], in experiment [12] and in experiment [13] was > 100 µM (inactive) each time. The GI50 in experiment [14], in experiment [15], in experiment [16] and in experiment [17] was > 100 µM (inactive) in each case.

Regarding `COc1cc(C(=O)N2CCc3c([nH]c4c([N+](=O)[O-])c(OC)ccc34)C2C)cc(OC)c1OC` (configuration not stated), the GI50 is > 100 µM (inactive) in experiment [1]; > 100 µM (inactive) in experiment [2]; 89.1 µM (inactive) in [3]; > 100 µM (inactive) in experiment [4]; > 100 µM (inactive) in experiment [5]; > 100 µM (inactive) in experiment [6]. Besides, the GI50 in [7], in experiment [8], in experiment [9], in experiment [10], in [11] and in [12] was > 100 µM (inactive) in each case. Also, the GI50 is > 100 µM (inactive) in experiment [13]; > 100 µM (inactive) in experiment [14]; > 100 µM (inactive) in experiment [15]; > 100 µM (inactive) in experiment [16]; 26.7 µM (inactive) in [17].

Turning to `CCOC(=O)/C(C#N)=C/c1[nH]c(C)c(C)c1C`, the GI50 in experiment [1], in [18], in experiment [2], in experiment [3], in experiment [4] and in [5] was > 100 µM (inactive) each time. Also, the GI50 in [6], in experiment [7], in experiment [8], in [9], in [10] and in experiment [11] was > 100 µM (inactive) each time. In addition, the GI50 in experiment [12], in [13], in [15], in experiment [16] and in [17] was > 100 µM (inactive) throughout.

Consider `O=[N+]([O-])c1ccc(Cl)c(C2CC(c3cccc4ccccc34)=Nc3ccccc3[S+]2[O-])c1` (configuration not stated), for which the GI50 in [1] is 3.97 µM (inactive); in experiment [18], 0.519 µM (active); in experiment [2] it was 15.4 µM (inactive); in [3] it was 13.7 µM (inactive); in [4], 9.93 µM (inactive); in [5], 13.1 µM (inactive). In addition, the GI50 in experiment [6] is 9.73 µM (inactive); in experiment [7], 17.7 µM (inactive); in experiment [8], 3.68 µM (inactive); in [9], 2.4 µM (inactive); in experiment [10], 14.8 µM (inactive); in [11], 17.7 µM (inactive). Besides, the GI50 in [12] is 24.2 µM (inactive); in experiment [13] it was 22.6 µM (inactive); in experiment [14] it was 18.5 µM (inactive); in experiment [15], 18.9 µM (inactive); in [16], 21 µM (inactive); in [17], 7.05 µM (inactive).

For the molecule `COc1ccc2c3c(c(C(=O)O)oc13)C(CCC(=O)O)CC2` (configuration not stated), the GI50 in experiment [18], in experiment [2], in [3], in experiment [4], in experiment [5] and in experiment [6] was > 100 µM (inactive) in each case. In addition, the GI50 in experiment [7], in [10], in [12], in experiment [13], in [14] and in experiment [16] was > 100 µM (inactive) each time. In addition, the GI50 in [17] was > 100 µM (inactive).

As to `CCCCCCCCCCCCCC(=O)OC1CC(=O)OC1CO` (configuration not stated), the GI50 in [1] is 21.9 µM (inactive); in experiment [18] it was 17 µM (inactive); in [2], 28.2 µM (inactive); in experiment [3] it was > 100 µM (inactive); in experiment [4] it was > 100 µM (inactive); in experiment [5], 53.6 µM (inactive). Moreover, the GI50 in experiment [6] was 27.4 µM (inactive); in experiment [7] it was 19.3 µM (inactive); in [8], 25.1 µM (inactive); in [9] it was 25.5 µM (inactive); in [10], 60.3 µM (inactive); in experiment [11], 32.8 µM (inactive). Moreover, the GI50 in experiment [12] was 77.6 µM (inactive); in experiment [13] it was 33.6 µM (inactive); in experiment [14], 46 µM (inactive); in experiment [15] it was 22.9 µM (inactive); in experiment [16] it was > 100 µM (inactive); in experiment [17] it was > 100 µM (inactive).

Consider `NCCNCc1c2ccccc2c(CNCCN)c2ccccc12`, for which the GI50 was 7.59 µM (inactive) in [1]; 22.2 µM (inactive) in experiment [18]; 12.2 µM (inactive) in [3]; 13.3 µM (inactive) in experiment [4]; 22 µM (inactive) in [5]; 5.18 µM (inactive) in experiment [6]. In addition, the GI50 in [7] is 16.3 µM (inactive); in experiment [8], 3.78 µM (inactive); in experiment [9] it was 15.4 µM (inactive); in experiment [10] it was 9.59 µM (inactive); in experiment [11], 49.4 µM (inactive); in experiment [12], 22.3 µM (inactive). The GI50 in experiment [13] was 18.2 µM (inactive); in [14], 34.8 µM (inactive); in experiment [15], 15.3 µM (inactive); in experiment [16], 10.5 µM (inactive); in experiment [17] it was 15.7 µM (inactive).
